Reference: patent US11304431B2, “Sweetener and flavor compositions, methods of making and methods of use thereof” (EPC Natural Products Co., Ltd., priority 2018, dated 2022)
Residues, ends and D or L forms follow the SMILES beside them.

What was measured:
[1] = sweetness depends on the tested concentration compared with sucrose; cited from earlier work
[2] = HPLC/DAD/MS of Maillard reaction intermediates (MRI, Amadori products), unreacted partners and degradation kinetics at various pH; conditions: 120 °C; for % formation from degraded Phe: n.d. = not detected
Protocol: For HPLC analysis the reacted samples were injected after filtration (2 μm syringe filters).
Mobile Phase A consisted of a 0.1% formic acid in water. Mobile Phase B consisted of 0.1% formic acid in acetonitrile. […] Injection volume was set to 20 μl.
The mobile phase consisted of (A) 0.1% HCOOH (v/v) and (B) AcCN. A gradient of 5% (B) to 15% (B) was applied between 0 min to 15 min. Between 15 and 20 min (B) was increased to 45% which was kept for 5 min. Detection consisted of UV/VIS-DAD (205 nm, 254 nm, 450 nm) coupled to ESI-MS (pos mode, 300° C., TIC from m/z 120-1200, fragmentor 100).
Quantitative evaluation was performed using external standardization.

[3] = DPPH radical-scavenging activity (Example 65); conditions: Reb-A 10 mM with or without amino acid, 100° C., 0-5 hours, diluted 1:10; FIG. 49 and 50
Protocol: 1 mg 1,1-Diphenyl-2-picrylhydrazyl radical (DPPH)/ml ethanol, dilution to assay concentration were prepared in ethanol (40 μg/mL); Calibration samples were prepared with Ascorbic acid in a concentration of 0-10 μg/mL; as a negative control sample, water was used.
Samples in aqueous solution were used as such or diluted with water.
A 0.1 ml sample (or calibration standard) was mixed with 3.9 ml solution of DPPH (100 μMolar) and reacted while protected from light at room temperature for 30 min. Absorbance was determined at 517 nm against ethanol.
10 mM of amino acid and/or 10 mM sugar were dissolved in 10 ml 0.1 mM KH2PO4-buffer, pH=7.8.
The samples were kept at 100° C. in sealed glass vials (Pyrex 15 ml with screw caps) for 0 (before reaction), 2.5 or 5.0 hours. Thereafter the samples were transferred to an ice water bath and cooled down to room temperature. These samples were diluted 1:10 and used for the test assay for anti-oxidant potential.

[4] = reaction of Phe and Suc, pH = 5.5, 1.0 h

| SMILES | times sweeter than sucrose (sugar, cane sugar) [1] | other results |
| --- | --- | --- |
| COC(=O)[C@H](Cc1ccccc1)NC(=O)[C@@H](N)CC(=O)O [Aspartame] (H-Asp-Phe-OMe) | 160-200 times | – |
| O=C(O)[C@H](Cc1ccccc1)NCC(=O)[C@@H](O)[C@H](O)[C@H](O)CO [MRI (Phe-Glu)] | – | % formation from degraded Phe [2, 4]: <0.10%; % formation from degraded Phe ([2]; reaction of Phe and Suc, pH = 7.0, 1.0 h): 0.54%; % formation from degraded Phe ([2]; reaction of Phe and Suc, pH = 8.5, 1.0 h): 0.84% |
| OC[C@@H](O)[C@@H](O)[C@H](O)[C@H](O)CO [Mannitol] | 0.55-0.65 times | – |
| N[C@H](Cc1ccccc1)C(=O)O [Phe] | – | % degradation [2, 4]: 5.50%; % degradation ([2]; reaction of Phe and Xyl, pH = 7.0, 1.0 h): 4.80% |
| C=C1C[C@@]23CC[C@H]4[C@@](C)(CCC[C@@]4(C)C(=O)O[C@@H]4O[C@H](CO)[C@@H](O)[C@H](O)[C@H]4O)[C@@H]2CC[C@]1(O[C@@H]1O[C@H](CO)[C@@H](O)[C@H](O[C@@H]2O[C@H](CO)[C@@H](O)[C@H](O)[C@H]2O)[C@H]1O[C@@H]1O[C@H](CO)[C@@H](O)[C@H](O)[C@H]1O)C3 [Reb-A, Rebaudioside A] | – | anti-oxidant properties [3]: substantial anti-oxidant properties |
| C=C1C[C@@]23CC[C@H]4[C@@](C)(CCC[C@@]4(C)C(=O)O[C@@H]4O[C@H](CO)[C@@H](O)[C@H](O)[C@H]4O)[C@@H]2CC[C@]1(O[C@@H]1O[C@H](CO)[C@@H](O)[C@H](O)[C@H]1O)C3 [Rubusoside] | 200 times | – |
| C[C@H](CC[C@@H](O[C@@H]1O[C@H](CO)[C@@H](O)[C@H](O)[C@H]1O[C@@H]1O[C@H](CO)[C@@H](O)[C@H](O)[C@H]1O)C(C)(C)O)[C@H]1CC[C@@]2(C)[C@H]3CC=C4[C@@H](CC[C@H](O[C@@H]5O[C@H](CO[C@@H]6O[C@H](CO)[C@@H](O)[C@H](O)[C@H]6O)[C@@H](O)[C@H](O)[C@H]5O)C4(C)C)[C@]3(C)[C@H](O)C[C@]12C [mogroside IV] | 126 times | – |
| C[C@H](CC[C@@H](O[C@@H]1O[C@H](CO[C@@H]2O[C@H](CO)[C@@H](O)[C@H](O)[C@H]2O)[C@@H](O)[C@H](O)[C@H]1O[C@@H]1O[C@H](CO)[C@@H](O)[C@H](O)[C@H]1O)C(C)(C)O)[C@H]1CC[C@@]2(C)[C@@H]3CC=C4[C@@H](CC[C@H](O[C@@H]5O[C@H](CO[C@@H]6O[C@H](CO)[C@@H](O)[C@H](O)[C@H]6O)[C@@H](O)[C@H](O)[C@H]5O)C4(C)C)[C@]3(C)[C@H](O)C[C@]12C [mogroside V] | 256-344 times | – |
| O=S(=O)([O-])NC1CCCCC1.[Na+] [sodium cyclamate] | about 30 times | – |
| OC[C@H]1O[C@H](O[C@]2(CCl)O[C@H](CCl)[C@@H](O)[C@@H]2O)[C@H](O)[C@@H](O)[C@H]1Cl [sucralose] | about 600 times | – |
